The text below walks through data of article PMC11378297, “Discovery and Profiling of New Multimodal Phenylglycinamide Derivatives as Potent Antiseizure and Antinociceptive Drug Candidates” (ACS Chemical Neuroscience, 2024).

One series relates to body temperature, mice. The series can be described thus: capsaicin-induced hypothermia test / rectal temperature. The format is in vivo, mouse. As to the method:
In this study, we used the capsaicin-induced hypothermia model in mice to evaluate the effect of eutomers (R)-31, (R)-32, and (R)-33 on body temperature and to provide more data related to their on-target activity (i.e., antagonism of TRPV1) (Figure S5A–D). Capsaicin given i.p. at a dose of 5 mg/kg produced a marked decrease in rectal temperature at 15 min post injection (p < 0.0001). The temperature returned to normal values within 30–60 min after capsaicin injection. […] None of the tested compounds reversed the capsaicin-induced hypothermia.
The changes in body temperature in the capsaicin-induced hypothermia model were evaluated as described previously. Eutomers (R)-31, (R)-32, and (R)-33 were suspended in a 1% Tween 80 and administered i.p. 15 min before injection of capsaicin (5 mg/kg, i.p.). The corresponding vehicles (1% DMSO or 1% Tween 80) were given to the control animals. Using an electronic thermometer (ThermoWorks, Alpine, Utah, USA), changes in the mouse’s rectal temperature were recorded by inserting the rectal probe approximately 2 cm into the mouse’s rectum. After −15, 0, 15, 30, 60, 90, 120, and 180 min, the measurements were collected. Subsequently, the variations in rectal temperature between the baseline ([…] for the groups receiving compounds and BCTC in conjunction with the vehicle, or […] for the groups receiving the vehicle, compounds, and BCTC in combination with the capsaicin) and the corresponding time point ΔT (°C) were computed and examined.
Figure S5. Acute effects of BCTC (A), (R)-31 (B), (R)-32 (C), and (R)-33 (D) on rectal temperature in the capsaicin-induced test in mice. Capsaicin (CPS) or vehicle (1% DMSO) were injected i.p. at 0 min, as indicated by the arrows.
BCTC, (R)-31, (R)-32, and (R)-33 were suspended in 1% Tween 80 and administered i.p. 15 min before CPS or vehicle injection. The temperature was measured at -15, 0, 15, 30, 60, 90, 120, and 180 min. Since body temperature returned to control values 60 min after CPS injection, subsequent measurements are not shown.
Data are presented as the mean differences (ΔT) in rectal temperature from 0 to -15 min (time point 0 min), from 15 to 0 min (time point 15 min), from 30 to 0 min (time point 30 min), and from 60 to 0 min (time point 60 min); n = 6–8 animals/group. Statistical significance was evaluated using one-way ANOVA with Tukey’s post hoc test: […]
(1 picture or pasted object on this page, not shown here)

A further series deals with T1, TRPV1 (VR1) (h) (Homo sapiens, UniProt Q8NER1).
T1 construct: host or cells: CHO cells
The series can be described thus: TRPV1 (VR1) (h) (antagonist effect). The format is cell-based. As to conditions: 100 µM, human recombinant CHO cells; read-out: % Inhibition of control specific binding (functional study, antagonist effect). The method, then:
(§1) Further in vitro functional studies confirmed TRPV1 antagonist activity for (R)-31–(R)-33.
(§2) Using previously described testing methodologies, binding/functional tests were conducted on a commercial basis at Eurofins Laboratories (Poitiers, France) and Eurofins Panlabs Discovery Services Taiwan, Ltd. (New Taipei City, Taiwan); see Table S9 for more information.
(§3) Table S9. Radioligand binding and functional assays. […]
TRPV1 (VR1) (h) (antagonist effect) […]
(§4) Assays were performed commercially in Eurofins Laboratories (Poitiers, France) or Eurofins Panlabs Discovery Services
(§5) Taiwan, Ltd. (New Taipei City, Taiwan).

The next series deals with Na+ channel (site 2). The series can be described thus: Na+ channel (site 2) radioligand binding. As to conditions: 100 µM, rat cerebral cortex. As to the method:
The current body of literature consistently reports that both sodium (Navx) and Cav1.2 calcium ion channels can be involved in the pathogenesis of epilepsy[67]−[69] and neuropathic pain.[70]−[73] […] Therefore, we performed binding and functional studies toward sodium (site 2) and calcium Cav1.2 channels at concentrations of 10 μM for (R)-31−(R)-33.
as §2, §3, §4, §5

A further series has as its target T2, CB1 (h) (Homo sapiens, UniProt P21554).
T2 construct: host or cells: CHO cells
Kind of series: CB1 (h) (agonist effect). In kind it is cell-based. As to conditions: human recombinant CHO cells, read-out: % Inhibition of control specific binding (functional study, agonist effect). The method, then: as §1
(§6) Table S2. In vitro TRPV1 channel antagonist activity for compounds 3–12 (series A), 21–24 (series B) in […]
(§7) Cmpd % Inhibition of control Cmpd % Inhibition of control agonist responsea agonist responsea
(§8) *Source: human recombinant CHO cells. a Results showing activity higher than 50% are considered to represent significant […]
(§9) around the control level. Assays were performed commercially in Eurofins Laboratories (Poitiers, France).
(§10) Binding studies Source % Inhibition of control specific binding […]
(§11) Na+ channel (site 2) Rat cerebral 94.9 (100)
(§12) Cav1.2 (dihydropyridine Rat cerebral 58.0 (100) site, antagonist radioligand) cortex
(§13) Functional studies Source % Inhibition of control specific binding […]
(§14) (antagonist effect) CHO cells
(§15) (agonist effect) CHO cells
(§16) Table S9. Radioligand binding and functional assays.
(§17) Cav1.2 (L-type) (h) calcium ion channel cell-based antagonist calcium flux assay TRPV1 (VR1) (h) (antagonist effect)
(§18) TRPA1 (h) transient potential ion channel cell based antagonist calcium flux assay TRPM8 (h) (antagonist effect)
(§19) Cav1.2 (L-type) (dihydropyridine site, antagonist radioligand) […]
(§20) Assays were performed commercially in Eurofins Laboratories (Poitiers, France) or Eurofins Panlabs Discovery Services Taiwan, Ltd. (New Taipei City, Taiwan).

The test system of series [1] is maximal electroshock (MES) seizures, mice. Particulars: reference ASMs, i.p., pretreatment time 0.5 h (LCS, VPA) or 1.0 h (LEV, CBD), literature or own experiments; cited from earlier work.
For series [2], the system named is Cav1.2 (dihydropyridine site). Kind of series: Cav1.2 (dihydropyridine site, antagonist radioligand) binding. Particulars: 100 µM, rat cerebral cortex. The method, then: as §1, §6, §7, §8, §9, §10, §11, §12, §13, §14, §15, §16, §17, §18, §19, §20
Series [3] deals with 6 Hz (32 mA) seizures, mice. As to conditions: reference ASMs, i.p., pretreatment time 0.5 h (LCS, VPA) or 1.0 h (LEV, CBD); cited from earlier work.
In series [4] the test system is 6 Hz (44 mA) seizures, mice. As to conditions: reference ASMs, i.p., pretreatment time 0.5 h (LCS, VPA) or 1.0 h (LEV, CBD); cited from earlier work.
Series [5] in a line: PAMPA (Precoated PAMPA Plate System Gentest) passive permeability. The format is in vitro ADME. As to conditions: passive blood–brain barrier permeability model. In general terms: The PAMPA barrier holds no transporters, so it reflects passive diffusion.

T2 sequence (P21554 whole entry): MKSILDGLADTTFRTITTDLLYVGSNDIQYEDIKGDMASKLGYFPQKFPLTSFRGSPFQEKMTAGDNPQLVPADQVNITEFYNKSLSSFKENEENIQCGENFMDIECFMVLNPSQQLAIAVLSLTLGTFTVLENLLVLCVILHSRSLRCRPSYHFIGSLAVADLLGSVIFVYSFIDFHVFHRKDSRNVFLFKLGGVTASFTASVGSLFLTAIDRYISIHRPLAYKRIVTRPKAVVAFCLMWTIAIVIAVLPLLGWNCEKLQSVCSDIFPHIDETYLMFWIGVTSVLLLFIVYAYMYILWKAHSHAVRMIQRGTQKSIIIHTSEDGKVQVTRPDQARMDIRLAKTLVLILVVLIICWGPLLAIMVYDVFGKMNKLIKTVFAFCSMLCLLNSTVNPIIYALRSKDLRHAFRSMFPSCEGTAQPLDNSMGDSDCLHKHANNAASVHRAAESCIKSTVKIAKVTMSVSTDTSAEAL
T1 sequence (Q8NER1 whole entry): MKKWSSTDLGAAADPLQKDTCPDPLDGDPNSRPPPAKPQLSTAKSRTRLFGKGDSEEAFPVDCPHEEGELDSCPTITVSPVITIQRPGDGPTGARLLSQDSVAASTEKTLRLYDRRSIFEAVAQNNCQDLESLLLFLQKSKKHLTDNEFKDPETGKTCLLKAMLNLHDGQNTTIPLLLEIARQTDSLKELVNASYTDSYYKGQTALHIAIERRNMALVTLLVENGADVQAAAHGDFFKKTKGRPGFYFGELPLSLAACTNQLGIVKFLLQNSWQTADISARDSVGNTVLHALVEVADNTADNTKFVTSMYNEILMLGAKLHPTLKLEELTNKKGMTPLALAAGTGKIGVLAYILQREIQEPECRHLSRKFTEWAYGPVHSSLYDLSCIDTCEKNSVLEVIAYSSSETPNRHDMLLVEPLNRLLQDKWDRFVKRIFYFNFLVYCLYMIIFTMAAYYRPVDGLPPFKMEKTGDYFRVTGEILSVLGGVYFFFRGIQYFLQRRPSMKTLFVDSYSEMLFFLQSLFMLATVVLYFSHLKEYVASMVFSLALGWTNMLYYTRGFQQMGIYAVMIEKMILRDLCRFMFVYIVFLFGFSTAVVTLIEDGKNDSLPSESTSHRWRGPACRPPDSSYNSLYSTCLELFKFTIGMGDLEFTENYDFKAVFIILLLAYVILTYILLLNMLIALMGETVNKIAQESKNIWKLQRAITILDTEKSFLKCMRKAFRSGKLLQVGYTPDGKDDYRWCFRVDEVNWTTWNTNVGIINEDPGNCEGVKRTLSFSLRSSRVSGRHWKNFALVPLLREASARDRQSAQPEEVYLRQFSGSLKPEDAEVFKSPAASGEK

On to `CC(C)(C)c1ccc(NC(=O)N2CCN(c3ncccc3Cl)CC2)cc1` [BCTC, reference compound], for which the “effect on capsaicin-induced hypothermia” value in the series on body temperature, mice (20 mg/kg with capsaicin 5 mg/kg i.p., p < 0.0001 at 15 and 30 min) is “alleviated the capsaicin-induced hypothermia”. Besides, the “effect on body temperature, administered alone” value in the series with body temperature, mice (20 mg/kg, 15 min after injection, p < 0.05) is “caused a significant increase in body temperature”.

In the case of `C=C(C)[C@@H]1CCC(C)=C[C@H]1c1c(O)cc(CCCCC)cc1O` [CBD, cannabidiol], the inhibition (as a rule, the relative decrease from the control value, in per cent) at 100 µM at TRPV1 (VR1) (h) amounted to 47.8%; at CB1 (h), 103%. In addition, the “% inhibition of control specific binding” value worked out at 94.9% in the series with Na+ channel (site 2) and 58.0% in [2]. For the same compound, the “ED50 MES” value in series [1] is listed as 80.0 mg/kg.

Regarding `COC[C@@H](NC(C)=O)C(=O)NCc1ccccc1` [LCS, lacosamide], the “ED50 6 Hz (32 mA)” value in [3] is recorded as 5.3 mg/kg. In addition, in [1], the “ED50 MES” value is listed as 9.2 mg/kg. The “ED50 6 Hz (44 mA)” value in series [4] was 6.9 mg/kg.

Take `Cn1c(=O)c2c(ncn2C)n(C)c1=O` [caffeine, reference compound]: in series [5], the “permeability coefficient (Pe)” value was 3.46 × 10^–6 cm/s.
